Eleven compounds from US20170144969A1, “ANT[…], METHOD FOR PRODUCTION AND USES THEREOF” (priority 2014, published 2017) can be followed below.

Where “and” joins values, the source holds several entries; their conditions need not be identical. Equal entries are not always repeated. Where two headings read alike, the source gives them in different places. Bounds are passed on as bounds.

For one series, the system named is E. coli (MTCC 443). Briefly: Minimum Inhibitory Concentration, micro-dilution broth. The class given is cell-based. To be noted: 24 h, 37° C.
For another series, the system named is MRSA (ATCC 33591). Described as above. To be noted: 24 h, 37° C. Type of series: cell-based, methicillin-resistant S. aureus.
Series [1] relates to vancomycin resistant Enterococcus faecium (VRE) (ATCC 51559). The series is described as above. Type of series: cell-based. To be noted: 24 h, 37° C.
Series [2] deals with Klebsiella pneumoniae (ATCC 700603). Described as above. The class given is cell-based. To be noted: 24 h, 37° C.
Another series concerns human Red Blood Cells. Kind of series: Haemolytic activity. To be noted: human RBCs, 1 h at 37° C.
The nature of series [3]: Antibacterial efficacy (MIC) after incubation in 50% human plasma. To be noted: for MIC / activity: up to 24 h incubation in 50% human plasma.
Series [4] concerns Enterococcus faecium (ATCC 19634). Briefly: Minimum Inhibitory Concentration, micro-dilution broth. Type of series: cell-based. In general terms: Dilution methods test growth across graded concentrations, often in twofold steps.
In another series the test system is S. aureus (MTCC 737). Described as above. Type of series: cell-based, Staphylococcus aureus. To be noted: 24 h, 37° C.
For series [5], the system named is stationary-phase S. aureus. Briefly: Time-kill kinetics against stationary phase bacteria. The class given is cell-based. To be noted: within 1 h of exposure, 50 μg/mL.
A further series relates to S. aureus. Kind of series: Resistance study, serial passage at MIC/2. Type of series: cell-based. To be noted: 20 passages.
The test system of a further series is E. coli. Kind of series: Resistance study, serial passage at MIC/2. The class given is cell-based. To be noted: 30 passages.
The test system of another series is S. aureus biofilms. Briefly: Bacterial biofilm disruption (pre-formed biofilm). The class given is cell-based. To be noted: for reduction of cell viability in pre-existing biofilms: 24 h.
Series [6] has as its system Ebola virus (strain ME718). Type of series: cell-based.
For series [7], the system named is Ebola virus (strain ME718). The class given is cell-based. The source holds these as a separate data set.
Series [8] has as its system Ebola virus. Type of series: cell-based.
Series [9] concerns Ebola virus. The class given is cell-based. The source holds these as a separate data set.
Series [10] has as its system Ebola virus. Type of series: cell-based. The source holds these as a separate data set.
The next series deals with HeLa cell line. Briefly: Cytotoxicity, MTT assay.
Series [11] concerns RAW (macrophage) cell line. Briefly: Cytotoxicity, MTT assay.
The mark [12] stands for this setting: 24 h, 37° C., read-out: Minimum Inhibitory Concentration E. faceium.

For the compound `CCCCCCCCCCCC(=O)N(CCCNC(=O)[C@@H](N)Cc1ccccc1)CCCNC(=O)[C@@H](N)Cc1ccccc1.O=C(O)C(F)(F)F.O=C(O)C(F)(F)F` [Compound 2, N,N-bis-[{3-(^LPhe)amino}propyl]dodecanamide bis(trifluoroacetate)], the MIC was found to be 12 µM against E. coli (MTCC 443); 2.7 µM in [1]; 10.7 µM in series [3] (after 2 h incubation with 50% plasma); 22 µM in [3] (after 4 h incubation with 50% plasma); 5.4 µM in [3] (before incubation with 50% human plasma). Moreover, the “Minimum Inhibitory Concentration MRSA” value in the series on MRSA (ATCC 33591) worked out at 4 µM. For the same compound, the “Minimum Inhibitory Concentration K. pneumonie” value in [2] came out at 9.7 µM. In the series on human Red Blood Cells (Table 3), the HC50 is recorded as 205. For the same compound, the MIC / activity result in [3] is on record as “remained same”.
For `CCCCCCCCCCCC(=O)N(CCCNC(=O)[C@H](N)Cc1ccccc1)CCCNC(=O)[C@H](N)Cc1ccccc1` [Compound 6, N,N-bis-[{3-(^DPhe)amino}propyl]dodecanamide bis(trifluoroacetate)], the MIC in series [4] (setting [12]) was 3.3 µM; in series [4] (Enterococcus faecium, ATCC19634, 24 h, read-out: Minimum Inhibitory Concentration E. faceium, 24 h, 37° C.) it was 2 to 5 µM; in the series with E. coli (MTCC 443) (Escherichia coli, MTCC443), 12 µM; in series [1], 2.9 µM. The stability in plasma result in series [3] (human plasma) is “stable in plasma”. The MIC / activity result in series [3] was “did not show any loss of activity”.
On to `CCCCCCCCCCCCCC(=O)N(CCCNC(=O)[C@H](N)CCCCN)CCCNC(=O)[C@H](N)CCCCN.O=C(O)C(F)(F)F.O=C(O)C(F)(F)F` [Compound 16, N,N-bis-[{3-(^DLys)amino}propyl]tetradecanamide bis(trifluoroacetate)], for which the results for the MIC (with S. aureus (MTCC 737); in the series with E. coli (MTCC 443); in series [1]) were 5.7 µM, 5.4 µM and 2.8 µM, respectively. Moreover, in [5], the “reductions in cell viability” value is recorded as “more than 3 Log CFU/mL”. Also, the “fold increase in the MIC” value in the series on S. aureus and with E. coli was “no change in the MIC” in each case. The “reduction of cell viability in pre-existing biofilms” value (“reduction of cell viability” for short) with S. aureus biofilms (4×MIC) is recorded as 5 Log (CFU/mL); in the series on S. aureus biofilms (10×MIC), 6 Log (CFU/mL); in the series with S. aureus biofilms (at its MIC concentration) it was “more than 4 Log CFU/mL”. Further, the “biofilm eradication, confocal microscopy” value with S. aureus biofilms (10×MIC) is recorded as “significant biofilm eradication”. For the same compound, in the series with S. aureus biofilms (10×MIC), the “pre-formed biofilm mass, crystal violet staining” value is listed as “enormous reduction in pre-formed biofilm mass”. Besides, the “Ct value Ave” value is 34.3 and 32.9 in series [6]; 33.65 and 35.29 in series [7]. In addition, the “Drug - no drug Ct change” value in series [6] was 7.02 and 5.64; in series [7], 3.76 and 5.40. Also, in the series with Ebola virus [8], the “Ct value, replicate wells 1-3” value is 25.96 and 27.13 and 26.42 and 26.03 and 24.81 and 25.73 and 26.99 and 26.76 and 26.30 and 26.31 and 26.49 and 26.53 and 26.04 and 26.63 and 16.70 and 18.76 and 16.93 and 24.42 and 24.33 and 24.32 and 21.29 and 20.72 and 23.10 and 19.95 and 20.87 and 20.22 and 17.82 and 20.49 and 19.45. The “amount of viral genome present” value in the series with Ebola virus [8] is “reduced the amount of viral genome present”. Also, the “rank of Ct value among 20 compounds” value with Ebola virus [9] and with Ebola virus [10] was “one of the top two Ct values” in each case. In addition, the “EC50 (50% cells viability)” value (with HeLa cell line (MTT); in series [11] (MTT)) was over 70 µg/mL each time. For the same compound, the toxicity result (with HeLa cell line (at its MIC); in series [11] (at its MIC)) was “did not show any toxicity” in each case.
As to `CCCCCCCCCCCC(=O)N(CCCNC(=O)[C@@H]1CCCN1)CCCNC(=O)[C@@H]1CCCN1.O=C(O)C(F)(F)F.O=C(O)C(F)(F)F` [Compound 57, N,N-bis-[{3-(^LPro)amido}propyl]dodecanamide bis(trifluoroacetate)], the MIC against S. aureus (MTCC 737) stood at 60 µM; in series [4] (setting [12]), 78 µM; in the series with E. coli (MTCC 443) it was 90 µM; in series [1], 112 µM. For the same compound, the “Minimum Inhibitory Concentration MRSA” value in the series with MRSA (ATCC 33591) amounted to 130 µM. Besides, the “Minimum Inhibitory Concentration K. pneumonie” value in series [2] was over 340 µM. The compound also registered an HC50 in the series on human Red Blood Cells (Table 6) of 918 µM.
On to `CCCCCCCCCCCCCC(=O)N(CCCNC(=O)[C@@H]1CCCN1)CCCNC(=O)[C@@H]1CCCN1.O=C(O)C(F)(F)F.O=C(O)C(F)(F)F` [Compound 58, N,N-bis-[{3-(^LPro)amido}propyl]tetradecanamide bis(trifluoroacetate)], for which the MIC against S. aureus (MTCC 737) was 11 µM; in series [4] (setting [12]) it was 13 µM; in the series on E. coli (MTCC 443) it was 12 µM; in series [1], 18 µM. Further, the “Minimum Inhibitory Concentration MRSA” value in the series on MRSA (ATCC 33591) stood at 15 µM. For the same compound, the “Minimum Inhibitory Concentration K. pneumonie” value in series [2] was 135 µM. Moreover, the HC50 in the series on human Red Blood Cells (Table 6) was found to be 216 µM.
`CCCCCCCCCCCCCCCC(=O)N(CCCNC(=O)[C@@H]1CCCN1)CCCNC(=O)[C@@H]1CCCN1.O=C(O)C(F)(F)F.O=C(O)C(F)(F)F` [Compound 59, N,N-bis-[{3-(^LPro)amido}propyl]hexadecanamide bis(trifluoroacetate)]: the MIC was determined as 2.8 µM against S. aureus (MTCC 737), 4 µM in [4] (setting [12]), 4.4 µM against E. coli (MTCC 443) and 2.7 µM in [1]. Further, the “Minimum Inhibitory Concentration MRSA” value in the series on MRSA (ATCC 33591) came to 7.2 µM. In addition, the “Minimum Inhibitory Concentration K. pneumonie” value in series [2] was 12 µM. In the series on human Red Blood Cells (Table 6), this compound had an HC50 of 76 µM.
`CC[C@H]1OC(=O)[C@H](C)[C@@H](O[C@H]2C[C@@](C)(OC)[C@@H](O)[C@H](C)O2)[C@H](C)[C@@H](O[C@@H]2O[C@H](C)C[C@H](N(C)C)[C@H]2O)[C@](C)(O)C[C@@H](C)C(=O)[C@H](C)[C@@H](O)[C@]1(C)O` [erythromycin, reference compound]: the “reduction of cell viability” value in the series on S. aureus biofilms (64×MIC) was “none of the antibiotics showed significant reduction”.
For `CC(=O)NC[C@H]1CN(c2ccc(N3CCOCC3)c(F)c2)C(=O)O1` [linezolid, reference compound], the “reduction of cell viability” value in the series with S. aureus biofilms (64×MIC) was “none of the antibiotics showed significant reduction”.
Consider `CCn1cc(C(=O)O)c(=O)c2cc(F)c(N3CCNCC3)cc21` [norfloxacin, reference compound], for which, in the series on S. aureus, the “fold increase in the MIC” value is on record as “around 800 fold”. The “reduction of cell viability” value with S. aureus biofilms (64×MIC) is “none of the antibiotics showed significant reduction”.
As to `CN[C@H](CC(C)C)C(=O)N[C@H]1C(=O)N[C@@H](CC(N)=O)C(=O)N[C@H]2C(=O)N[C@H]3C(=O)N[C@H](C(=O)N[C@H](C(=O)O)c4cc(O)cc(O)c4-c4cc3ccc4O)[C@H](O)c3ccc(c(Cl)c3)Oc3cc2cc(c3O[C@@H]2O[C@H](CO)[C@@H](O)[C@H](O)[C@H]2O[C@H]2C[C@](C)(N)[C@H](O)[C@H](C)O2)Oc2ccc(cc2Cl)[C@H]1O` [vancomycin, reference compound], the “reduction of cell viability” value in the series on S. aureus biofilms (64×MIC) is reported as “none of the antibiotics showed significant reduction”.
As to colistin [reference compound], in the series on E. coli, the “fold increase in the MIC” value is about 250 fold.
